From US10940139B2, “Compounds that interact with the Ras superfamily for the treatment of cancers, inflammatory diseases, rasopathies, and fibrotic disease” (Shy Therapeutics LLC, priority 2017, dated 2021) come the findings set out here.

Broadly, the IC50 is the concentration that inhibits the measured activity by half. Higher therefore signals weaker potency in that assay. By inhibition is commonly meant the change of the read-out against control, counted positive when it falls. Low readings indicate a weak effect, high ones a strong effect.

The subject of one assay is MIA-PACA2 pancreatic cancer cell lines. The assay is described as follows: Cell proliferation assay (CellTiter 96 AQueous One). The assay is classed as cell-based. To be noted: Homo sapiens, MIA PaCa-2; MIA-PACA2, same assay as the % inhibition (standard conditions).
As for `COc1ccnc(-c2nc(O)c3ccsc3n2)c1` [drawing 1631], the concentration for half-maximal inhibition (IC50) was in the range of 100 to 500 nM.

The compound `CN(C)Cc1ccc(-c2csc3c(O)nc(-c4ccccn4)nc23)cc1F` [drawing 1721] came in with an IC50 of 100 to 500 nM.

The same assay, now with this note: Homo sapiens, MIA PaCa-2; at 30 μM, MIA-PACA2.
As for `O=C(CN1CCN(c2nc(-c3ccccn3)nc3scc(-c4ccccc4)c23)CC1)N1CCCC1` [drawing 1620], the inhibition at 30 µM was in the range of 76 to 100%.

`COc1ccnc(-c2nc(O)c3ccsc3n2)c1` [drawing 1631] gave an inhibition at 30 µM of 76 to 100%.

`COc1ccnc(-c2nc(O)c3c(Cl)csc3n2)c1` [drawing 1693] returned an inhibition at 30 µM of 76 to 100%.

`COc1ccc(N2CCN(C(=O)c3csc4c(O)nc(-c5ccccn5)nc34)CC2)cc1O` [drawing 1695] showed an inhibition at 30 µM of 76 to 100%.

As for `COc1cc(CNc2nc(-c3ccccn3)nc3scc(-c4ccccc4)c23)ccc1OCC(N)=O`, the inhibition at 30 µM is 76 to 100%.

`O=C(COn1ccnc1)Nc1nc(-c2ccccn2)nc2sccc12` yielded an inhibition at 30 µM of 76 to 100%.

Consider `O=C(c1csc2c(O)nc(-c3ccccn3)nc12)N1CCC(c2cccc(O)c2)C1` (centres unmarked) [drawing 1716], for which the inhibition at 30 µM lay in the range of 76 to 100%.

`Oc1nc(-c2ccccn2)nc2sc3c(c12)CCNC3` [drawing 1727] displayed an inhibition at 30 µM of 76 to 100%.

Compound `N#Cc1ccc(CC(=O)Nc2ccnc(-c3ccccn3)n2)cc1` [drawing 1586] showed an inhibition at 30 µM of 76 to 100%.

In the case of `CCOc1cc(S(=O)(=O)N(Cc2ccccc2)Cc2ccccc2)c(OCC)cc1C` [drawing 1529], the inhibition at 30 µM lay in the range of 76 to 100%.

`Cc1ccc(CC(=O)Nc2nnc(-c3ccccn3)[nH]2)s1` [drawing 1433] showed an inhibition at 30 µM of 76 to 100%.

Turning to `Cc1sc2[nH]c(-c3ccccn3)nc(=O)c2c1-c1ccccc1` [drawing 1493], the inhibition at 30 µM lay within 76 to 100%.

Compound `CS(=O)(=O)Cc1ccc(C(=O)Nc2nc(-c3ccccn3)cs2)cc1` [drawing 1479] registered an inhibition at 30 µM of 76 to 100%.

Compound `CC(C)(C(=O)Nc1nc(-c2ccccn2)nc2sccc12)c1ccc(C#N)cc1` [drawing 1646] came in with an inhibition at 30 µM of 76 to 100%.

Take `O=C(NCCc1ccnc(O)c1)c1csc2nc(-c3ccccn3)nc(N3CCOCC3)c12` [drawing 1676]: the inhibition at 30 µM is 51 to 75%.

For `O=C(Nc1nnc(-c2ccccn2)[nH]1)C1CCCC(C(F)(F)F)C1` (centres unmarked) [drawing 1430], the inhibition at 30 µM fell in the range of 76 to 100%.

Compound `COc1ncc(CCNC(=O)c2csc3nc(-c4ccccn4)nc(N4CCOCC4)c23)cn1` [drawing 1642] registered an inhibition at 30 µM of 76 to 100%.

As to `COc1cccc(CC(=O)Nc2nnc(-c3ccccn3)[nH]2)c1` [drawing 1390], the inhibition at 30 µM lay in the range of 25 to 50%.

With `O=C(c1ccn(-c2ccccc2)n1)N1CCCc2c(O)nc(-c3ccccn3)nc21` [drawing 1546], the inhibition at 30 µM was 76 to 100%.

`Cc1cccc(C(=O)Nc2nnc(-c3ccccn3)[nH]2)n1` [drawing 1436]: the inhibition at 30 µM was 51 to 75%.

On to `CC(Oc1ccccc1Cl)C(=O)Nc1nnc(-c2ccccn2)[nH]1` (centres unmarked) [drawing 1396], for which the inhibition at 30 µM is 76 to 100%.

On to `CN(C)Cc1ccc(-c2csc3c(O)nc(-c4ccccn4)nc23)cc1F` [drawing 1721], for which the inhibition at 30 µM was 76 to 100%.

`O=C(Nc1nnc(-c2ccccn2)[nH]1)c1nc(N2CCOCC2)ncc1Cl` [drawing 1421] showed an inhibition at 30 µM of 76 to 100%.

In the case of `Cc1ccccc1N1CCN(C(=O)c2csc3c(O)nc(-c4ccccn4)nc23)CC1` [drawing 1633], the inhibition at 30 µM is 76 to 100%.

For `CC(C1CC1)N(CC(F)(F)F)C(=O)Cc1ccc(-c2ccccc2)cc1` (centres unmarked) [drawing 1535], the inhibition at 30 µM fell in the range of 76 to 100%.

For `COc1cc(C)c(-c2csc3c(O)nc(-c4ccccn4)nc23)cc1C` [drawing 1745], the inhibition at 30 µM was in the range of 76 to 100%.

In turn, `O=C(Nc1nc(-c2ccccn2)cs1)c1ccc(F)cc1` [drawing 1486] yielded an inhibition at 30 µM of 76 to 100%.

As for `CNS(=O)(=O)CCCNC(=O)c1csc2nc(-c3ccccn3)nc(N3CCOCC3)c12` [drawing 1684], the inhibition at 30 µM was in the range of 76 to 100%.

`O=C(Nc1nnc(-c2ccccn2)[nH]1)c1ccn(-c2cccc(F)c2)n1` [drawing 1397] returned an inhibition at 30 µM of 76 to 100%.

For the compound `COc1cccc(COCC(=O)Nc2nnc(-c3ccccn3)[nH]2)c1` [drawing 1446], the inhibition at 30 µM lay within 51 to 75%.

For `O=C(CCc1c[nH]c2ccccc12)Nc1nnc(-c2ccccn2)[nH]1` [drawing 1400], the inhibition at 30 µM is 51 to 75%.

On to `O=C(c1csc2c(O)nc(-c3ccccn3)nc12)N1CCNC(c2cn[nH]c2)C1` (centres unmarked) [drawing 1734], for which the inhibition at 30 µM was 1 to 25%.

`COc1ccnc(-c2nc(O)c3c(C#N)csc3n2)c1` [drawing 1675] came in with an inhibition at 30 µM of 76 to 100%.

The compound `COCCOCCN(C)C(=O)c1csc2c(O)nc(-c3ccccn3)nc12` [drawing 1575] had an inhibition at 30 µM of 25 to 50%.

Take `OC1CCCN(c2nc(-c3ccccn3)nc3scc(-c4ccccc4)c23)C1` (centres unmarked) [drawing 1617]: the inhibition at 30 µM was in the range of 76 to 100%.

`CN(CCc1cccc(C#N)c1)C(=O)c1csc2nc(-c3ccccn3)nc(N3CCOCC3)c12` [drawing 1681] yielded an inhibition at 30 µM of 76 to 100%.

`O=C(Nc1nc(-c2ccccn2)cs1)C1COc2ccccc2O1` (centres unmarked) [drawing 1473] came in with an inhibition at 30 µM of 76 to 100%.

Regarding `Oc1nc(-c2ccccn2)nc2sc3c(c12)CCCNC3` [drawing 1728], the inhibition at 30 µM was 25 to 50%.

Compound `O=C(Cc1ccc(F)cc1)Nc1nnc(-c2ccccn2)[nH]1` [drawing 1427] showed an inhibition at 30 µM of 51 to 75%.

Turning to `O=C(Nc1nnc(-c2ccccn2)[nH]1)C1=NOC(c2ccccc2)C1` (centres unmarked) [drawing 1455], the inhibition at 30 µM was 25 to 50%.

For the compound `COc1ccc(C(=O)Nc2nc(-c3ccccn3)cs2)cn1` [drawing 1488], the inhibition at 30 µM lay within 76 to 100%.

`O=C(Nc1nnc(-c2ccccn2)[nH]1)c1ccc(CN2C(=O)CCC2=O)cc1` [drawing 1405] gave an inhibition at 30 µM of 1 to 25%.

In the case of `N#Cc1cccc(OCC(=O)Nc2nnc(-c3ccccn3)[nH]2)c1` [drawing 1435], the inhibition at 30 µM fell in the range of 25 to 50%.

Compound `Cc1ccc(C(=O)Nc2nnc(-c3ccccn3)[nH]2)cc1S(C)(=O)=O` [drawing 1391] showed an inhibition at 30 µM of 51 to 75%.

In turn, `O=C(CCn1ccc2ccccc21)Nc1nnc(-c2ccccn2)[nH]1` [drawing 1392] gave an inhibition at 30 µM of 51 to 75%.

In turn, `N#Cc1cccc(N2CCN(C(=O)c3csc4c(O)nc(-c5ccccn5)nc34)CC2)c1` [drawing 1649] showed an inhibition at 30 µM of 76 to 100%.

Consider `O=C(Nc1nnc(-c2ccccn2)[nH]1)c1ccc2c(c1)CCO2` [drawing 1386], for which the inhibition at 30 µM was in the range of 76 to 100%.

In the case of `O=C(Nc1nnc(-c2ccccn2)[nH]1)C1CCCN(c2ncccn2)C1` (centres unmarked) [drawing 1426], the inhibition at 30 µM is 76 to 100%.

`Oc1nc(-c2ccccn2)nc2c(-c3ccc(CN4CCOCC4)cc3)csc12` [drawing 1758] gave an inhibition at 30 µM of 76 to 100%.

Turning to `Nc1nc(O)c2scc(C(=O)N3CCC(N4CCCC4=O)CC3)c2n1` [drawing 1559], the inhibition at 30 µM was 25 to 50%.

The compound `OCCOCCNc1nc(-c2ccccn2)nc2scc(-c3ccccc3)c12` [drawing 1515] showed an inhibition at 30 µM of 76 to 100%.

Consider `CSc1nc(C2CC2)cc(C(=O)NCCc2ccc(S(=O)(=O)NC(=O)c3cc(C4CC4)nc(SC)c3C#N)cc2)c1C#N` [drawing 1539], for which the inhibition at 30 µM fell in the range of 1 to 25%.

In turn, `O=C(c1csc2c(O)nc(-c3ccccn3)nc12)N1CCNC(Cc2cccc(F)c2)C1` (centres unmarked) [drawing 1708] came in with an inhibition at 30 µM of 25 to 50%.

`O=C(Cn1c(=O)[nH]c2ccccc21)Nc1nnc(-c2ccccn2)[nH]1` [drawing 1448] showed an inhibition at 30 µM of 25 to 50%.
